For data set [1] the following is noted: GI-absorbed aspirin; cited from earlier work.
The subject of data set [2] is flushing side effect of niacin. The experiment in a line: Example 1: flush rating on the Global Flush Severity Scale (GFSS) after niacin, with or without aspirin. The data set is classed as in vivo, human. To be noted: for reduction of flush severity (GFSS) from Period I: vs niacin alone. As for the experimental part:
Healthy human patients were recruited for this study. […] Each patient was asked to rate his or her flush on the Global Flush Severity Scale (GFSS) (see FIG. 1 and Paolini et al. Int. J. Clin. Pract. 62(6):896-904 (2008)), when the flush completely resolved. The Global Flushing Severity Score measures, overall, in the previous 24 hours, how each patient rates the flushing symptoms, including redness, warmth, tingling, and itchiness of the skin. […] After the flush completely resolved, then each patient recorded his or her GFSS flush rating. Not until at least two days later did Period III start. At Period III, each patient was asked to not swallow the orally administered aspirin (81 mg) but to allow the aspirin to be absorbed through the oral mucosa. The aspirin was in powdered form and the remaining aspirin in the mouth was washed out with water. […] Still, the flush was rated (GFSS) after it was resolved. […] The flush was then rated (GFSS) after it completely resolved.

Take `CC(=O)Oc1ccccc1C(=O)O` [aspirin]: the “time to peak aspirin serum level following administration” value in data set [1] was 15 to 20 min. In addition, the “reduction of flush severity (GFSS) from Period I” value in data set [2] (Period II: 81 mg aspirin swallowed + 500 mg niacin) stood at 18%; in data set [2] (Period III: 81 mg aspirin mucosally absorbed + 500 mg niacin) it was 40%; in data set [2] (Period IV: 81 mg aspirin half mucosally absorbed, half swallowed + 500 mg niacin), 53%. Besides, the “Global Flush Severity Scale (GFSS) average score” value in data set [2] (Period II: 81 mg aspirin swallowed, followed by 500 mg niacin) is recorded as 6.88; in data set [2] (Period III: 81 mg aspirin mucosally absorbed (not swallowed), then 500 mg niacin), 5.06; in data set [2] (Period IV: 81 mg aspirin half mucosally absorbed and half swallowed, then 500 mg niacin) it was 3.94.

Values taken from patent US9226891B2, “Anti-flush compositions” (Vitalis LLC, priority 2011, dated 2016).
